The source of these data is the supplement of paper PMC10307832.

Test in all cases: relative viability (nuclei count vs DMSO), 5 days (fraction); higher = more cells survive
Compound in experiment [1]: CCC1=CN=CN=C1N2CCN(CC2)CC3=NC4=C(N3)C=C(C=C4)C(F)(F)F + COc1cc2c(Oc3ccc(NC(=O)C4(C(=O)Nc5ccc(F)cc5)CC4)cc3F)ccnc2cc1OCCCN1CCOCC1 [Foretinib] (partner 0.25 µM)
Summed up:
(§1)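 Relative viability is defined as nuclei in treated wells over nuclei in vehicle wells. Duplicate plates were run and medians reported. Lung cancer cell lines in 1536-well plates were dosed by pin tool one day after seeding, with one drug or with a fixed anchor-drug dose plus five library-drug doses (not always all listed) in √10 steps, and nuclei were counted after 5 days.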

Compound in the experiment “Mirin + Linsitinib”: N=C1NC(=O)/C(=C/c2ccc(O)cc2)S1 [Mirin] + C[C@]1(O)C[C@@H](c2nc(-c3ccc4ccc(-c5ccccc5)nc4c3)c3c(N)nccn32)C1 [Linsitinib] (partner 1 µM)
Summed up: as §1

Compound in experiment [2]: CCC1=CN=CN=C1N2CCN(CC2)CC3=NC4=C(N3)C=C(C=C4)C(F)(F)F + O=C(CCCCCCC(=O)Nc1ccccc1)NO [Vorinostat] (partner 1 µM)
The method, boiled down: as §1

Compound in experiment [3]: CCC1=CN=CN=C1N2CCN(CC2)CC3=NC4=C(N3)C=C(C=C4)C(F)(F)F + CC(=O)Nc1cccc(-n2c(=O)n(C3CC3)c(=O)c3c(Nc4ccc(I)cc4F)n(C)c(=O)c(C)c32)c1 [Trametinib] (partner 0.02 µM)
Summed up:
as §1

Consider UMC-11, for which the relative viability in experiment [1] (first compound 0.04 µM) was 0.997; in experiment [1] (first compound 0.1265 µM) it was 0.932; in experiment [1] (first compound 0.4 µM) it was 1; in experiment [1] (first compound 1.265 µM), 0.898; in experiment [1] (first compound 4 µM) it was 0.96; with Mirin + Linsitinib (first compound 0.25 µM), 1. Further, the relative viability with Mirin + Linsitinib (first compound 0.7906 µM) amounted to 0.963; with Mirin + Linsitinib (first compound 2.5 µM), 1.07; with Mirin + Linsitinib (first compound 7.906 µM), 0.803; in the experiment with Mirin + Linsitinib (first compound 25 µM) it was 0.66; in experiment [2] (first compound 0.04 µM), 0.357; in experiment [2] (first compound 0.1265 µM), 0.359. The relative viability in experiment [2] (first compound 0.4 µM) amounted to 0.376; in experiment [2] (first compound 1.265 µM), 0.304; in experiment [2] (first compound 4 µM), 0.316; in experiment [3] (first compound 0.04 µM), 0.721; in experiment [3] (first compound 0.1265 µM) it was 0.592; in experiment [3] (first compound 0.4 µM) it was 0.671. In addition, the relative viability came to 0.514 in experiment [3] (first compound 1.265 µM) and 0.721 in experiment [3] (first compound 4 µM).
